From patent publication US20250172543A1, “HIGH DENSITY 3D HEPATOCYTE SPHEROID PLATFORM FOR DRUG ADME STUDIES” (Discovery Life Sciences, LLC, priority 2018, published 2025)
Read-outs that look alike come from different tables or passages of the source.

Experiments:
[1] = test system: PHHs grown in suspension format; test: Clearance measurement with PHHs grown in suspension format; details: FIGS. 8A-I
[2] = actual in vivo clearance for comparison; cited from earlier work
[3] = test system: 3D primary human hepatocyte (PHH) high density spheroids; test: 3D PHH high density spheroid drug clearance assay; type: in vitro ADME; details: 0.1 μM substrate, 6-well spheroid insert, in vivo hepatic clearance predicted from in vitro Clint by well stirred model
Procedure: Plating PHHs onto 6-well high density spheroid insert (−700 microwells/insert): PHH were thawed as standard procedure and resuspended in WEM plating medium. PHH cells were counted and the cell density was adjusted to 0.35e6/ml using WEM plating medium. For plating PHHs, the pipet aid was set at low disperse speed. Right before plating, a 5 mL pipet was used to remove most medium from pre-wetted inserts. Even cell suspensions were prepared by gently pipetting up and down. Using a 5 mL pipet, with the position the tip against the side wall at the bottom, 2 mL of cell suspension (700K cells, -1000 cells/microwell) was added to a 6-well spheroid insert. The plate was allowed to sit for 15-20 min in the hood. The plates were checked under a microscope with a 4x objective, to ensure that that a similar number of cells have settled into each microwell.
Half medium change with WME+medium: The pipet aid was at low disperse speed. Using a 5 mL pipet, 1 mL of old medium was slowly from each insert. A 1000 μL pipet tip was positioned against the top part of the insert sidewall, and 1 mL pre-warmed WME+medium was slowly added with the medium being allowed to flow down the sidewall. After waiting 5-10 minutes between each half medium change, the half medium change was repeated 3 more times. The PHHs were checked under a microscope for spheroid formation.
Incubate the candidate compound(s) to be tested for clearance with the cultured spheroids: The pipet aid was set at low disperse speed. Using a 5 mL pipet, 1 mL of old medium was slowly removed from each insert. […] After 5-10 minutes, the culture was placed back to 37° C. incubator. The timer for incubation was started at this point.
Sampling: 40 μL/well stop solutions Labetalol (0.2 uM IN 0.05% FA/50%ACN) was aliquoted in an assay plate and kept on ice. At the desired assay incubation time (0 hr, 1 hr, 2 hrs, 4 hrs, 6 hrs, 12 hrs, 24 hrs, 36 hrs, 48 hrs, 3 days, 4 days, 5 days, 6 days, 7 days, 8 days, 9 days, 10 days, 11 days, 12 days, 13 days 14 days, 3 weeks, 4 weeks, or any value or range there between), 40 μL sample were drawn from each incubation well, mixed well with stop solution, and stored at −80° C.
LC/MS analysis: The amount of the candidate compound was measured using liquid chromatography/mass spectrometry, as is known in the art.
Calculate the elimination rate constant (ke1): The percentage of the candidate compound remaining in the culture was calculated by dividing the mass spectrometry peak area ratio at certain incubation times to that at time zero, as is known in the art. The natural logarithm of the percentage of the remaining candidate compound was plotted against time, and the kelwas calculated as the absolute value from the slope.
Calculate the depletion half-lives of the candidate compounds: Once the kel was determined for the candidate compound, the depletion half-life of the candidate compound was determined by Equation 1, as is known in the art.
Calculate the;n vitro clearance (Clint) of the candidate compound: The in vitro clearance of the candidate compounds was calculated using the in vitro half-lives from Equation 1 using the scaling factors of Equation 2, as is known in the art.
Calculate predicted in vivo hepatic clearance (CLh): The in vivo hepatic clearance was calculated from the in vitro clearance determined by Equation 2 using the well stirred model Equation 3, as is known in the art.

[4] = test system: PHHs grown in suspension format; details: human

Compound	Measurability of clearance in suspension hepatocytes [1]	In Vivo CLnonrenal [2]	Predicted CLh, 3D HD Spheroids [3]	Measurability of clearance in suspension hepatocytes [4]
Cc1nnc2n1-c1ccc(Cl)cc1C(c1ccccc1)=NC2 [Alprazolam]	unable to measure	0.61	0.45	–
CN1C(=O)CN=C(c2ccccc2)c2cc(Cl)ccc21 [Diazepam]	–	0.53	–	–
CCC1=C(C)CN(C(=O)NCCc2ccc(S(=O)(=O)NC(=O)N[C@H]3CC[C@H](C)CC3)cc2)C1=O [Glimepiride]	–	1.12	0.04	unable to measure
C[C@]12C=CC(=O)C=C1CC[C@@H]1[C@@H]2[C@@H](O)C[C@@]2(C)[C@H]1CC[C@]2(O)C(=O)CO [Prednisolone]	–	1.44	0.60	unable to measure
CCCCNC(=O)NS(=O)(=O)c1ccc(C)cc1 [Tolbutamide]	–	–	0.22	unable to measure
CC(=O)CC(c1ccccc1)c1c(O)c2ccccc2oc1=O (centres unmarked) [Warfarin]	–	–	0.01	unable to measure
